Structures are written as SMILES.

The test system of one assay is Plutella xylostella. Put plainly: insecticidal effect for Plutella xylostella (cabbage leaf dip). Format: in vivo. The following applies: 100 ppm, second-instar larvae, fifth day after, 24° C. The procedure:
1) insecticidal effect for Plutella xylostella One 7 to 8-leave stage foliage leaf of cabbage was cut off and dipped in a pesticidal solution for a few seconds, which was prepared by dissolving 5 mg of test compound (represented by the compound Nos. in the above Examples) in 0.5 ml of acetone containing Tween 20 (trade name) and then diluting it to the prescribed concentration (100 ppm) with Dain water diluted 5000-fold. After drying the pesticidal solution, the leaf was put into an ice cream cup (180 ml), and ten second-instar larvae of Plutella xylostella were set free. The cup was left in a temperature-controlled breeding room (24° C.). On the fifth day after, the number of surviving Plutella xylostella was examined. The rate of dead pests was calculated by the following formula, and the result was shown in table 39. rate of dead pests (%)=(number of dead pests/number of test pests)×100

The subject of another assay is Tetranychus urticae. As to the kind of experiment: acaricidal effect for Tetranychus urticae (spray on string bean). Format: in vivo. The following applies: 500 ppm, female imagoes, survivors counted on second and seventh day after treatment, 25° C. How it is done:
2) acaricidal effect for Tetranychus urticae Ten female imagoes Tetranychus urticae were set free on a string bean wherein first leaves had just developed. On the following day, the pesticidal solution, which was prepared by dissolving 5 mg of test compound (represented by the compound Nos. in the above Examples) in 0.5 ml of acetone containing Tween 20 (trade name) and then diluting it to the prescribed concentration (500 ppm) with Dain water diluted 5000-fold, was sprayed with spray gun in the amounts wherein the pesticidal solution dripped. The string bean was left in a temperature-controlled breeding room (25° C.). On the second and seventh day after treatment, the number of surviving Tetranychus urticae was examined. The rate of decrease was calculated by the following formula, and the result was shown in table 40. rate of decrease (%)=(1−(S2/(5.59×(10+(10+S1)/2+S1))))×100 • S1; the number of surviving imagoes on the second day after S2; the number of surviving imagoes on the seventh day after […]

As for `Cc1nc(-c2c(F)cccc2Cl)nn1-c1ccc(C(C)Oc2ncc(C(F)(F)F)cc2Cl)cc1` (racemic) [T-267], the “Rate of dead pests (%)” value in the assay on Plutella xylostella is recorded as 100%. For the same molecule, the “Rate of decrease (%)” value in the assay with Tetranychus urticae stood at 99%.
Consider `Fc1ccccc1-c1cn(-c2ccc(COc3ncc(C(F)(F)F)cc3Cl)cc2)c(Cl)n1` [I-77], for which the “Rate of decrease (%)” value in the assay with Tetranychus urticae came out at 95%.
Still for that read-out and setting: to `O=Cc1nc(-c2ccccc2F)cn1-c1ccc(COc2ncc(C(F)(F)F)cc2Cl)cc1` [I-82] belongs 99%.
For the molecule `Fc1cccc(Cl)c1-c1cc(Cl)n(-c2ccc(COc3ncc(C(F)(F)F)cc3Cl)cc2)n1` [P-21, 5-chloro-3-(2-chloro-6-fluorophenyl)-1-[4-(3-chloro-5-trifluoromethylpyridin-2-yloxymethyl)phenyl]pyrazole], the “Rate of dead pests (%)” value in the assay on Plutella xylostella worked out at 100%. In the assay with Tetranychus urticae, the “Rate of decrease (%)” value is listed as 99%.
For `Cc1nc(-c2c(F)cccc2Cl)nn1-c1ccc(COc2ccc(Cl)cc2)cc1` [T-3], in the assay with Plutella xylostella, the “Rate of dead pests (%)” value amounted to 100%. Also, the “Rate of decrease (%)” value with Tetranychus urticae came out at 98%.
On the same counts, the results for `Cc1nc(-c2c(F)cccc2Cl)nn1-c1ccc(COc2ccc(C(F)(F)F)cc2)cc1` [T-5] are 95% and 96%.
`Cc1nc(-c2c(F)cccc2Cl)nn1-c1ccc(COc2ccc(Cl)cc2Cl)cc1` [T-9]: the “Rate of dead pests (%)” value with Plutella xylostella is given as 100%. The “Rate of decrease (%)” value with Tetranychus urticae is on record as 99%.
In the case of `Cc1nc(-c2c(F)cccc2Cl)nn1-c1ccc(COc2ccc(C(F)(F)F)cc2Cl)cc1` [T-12], the “Rate of dead pests (%)” value in the assay on Plutella xylostella is on record as 100%. The “Rate of decrease (%)” value with Tetranychus urticae was 98%.
Take `Cc1nc(-c2c(F)cccc2Cl)nn1-c1ccc(COc2ccc(C(F)(F)F)cn2)cc1` [T-17]: in the assay with Plutella xylostella, the “Rate of dead pests (%)” value was 100%.
For the molecule `Cc1nc(-c2c(F)cccc2Cl)nn1-c1ccc(COc2ccc(Cl)cn2)cc1` [T-18], in the assay on Plutella xylostella, the “Rate of dead pests (%)” value stood at 100%. Further, the “Rate of decrease (%)” value with Tetranychus urticae was 97%.
The matching figures for `Cc1nc(-c2c(F)cccc2Cl)nn1-c1ccc(COc2ncc(Cl)cc2Cl)cc1` [T-20]: 100% and 98%.
Turning to `Cc1nc(-c2c(F)cccc2Cl)nn1-c1ccc(COc2ncc(C(F)(F)F)cc2Cl)cc1` [T-21, 3-(2-chloro-6-fluorophenyl)-1-[4-(3-chloro-5-trifluoromethylpyridin-2-yloxymethyl)phenyl]-5-methyl-1H-1,2,4-triazole], in the assay on Plutella xylostella, the “Rate of dead pests (%)” value was 100%. Besides, in the assay on Tetranychus urticae, the “Rate of decrease (%)” value is reported as 100%.
As for `Cc1nc(-c2c(F)cccc2Cl)nn1-c1ccc(COc2ncc(Cl)cn2)cc1` [T-24], the “Rate of decrease (%)” value in the assay with Tetranychus urticae came out at 97%.
Same read-out and setting: the figure for `Cc1nc(-c2c(F)cccc2Cl)nn1-c1ccc(COc2nnc(C(F)(F)F)s2)cc1` [T-25] is 99%.
In the case of `Cc1nc(-c2c(F)cccc2Cl)nn1-c1ccc(COc2ncc(C(F)(F)F)cc2Cl)cn1` [T-28], the “Rate of dead pests (%)” value in the assay with Plutella xylostella is 100%. The “Rate of decrease (%)” value in the assay on Tetranychus urticae is on record as 98%.
On the same counts, the results for `Cc1nc(-c2c(F)cccc2Cl)nn1-c1ccc(COc2ncc(C(F)(F)F)cc2Cl)cc1Cl` [T-30] are 100% and 99%.
The matching figures for `Nc1nc(-c2c(F)cccc2Cl)nn1-c1ccc(COc2ncc(C(F)(F)F)cc2Cl)cc1` [T-40]: 95% and 97%.
The matching figures for `Fc1cccc(Cl)c1-c1nc(Cl)n(-c2ccc(COc3ncc(C(F)(F)F)cc3Cl)cc2)n1` [T-43]: 100% and 100%.
In the case of `COc1nc(-c2c(F)cccc2Cl)nn1-c1ccc(COc2ncc(C(F)(F)F)cc2Cl)cc1` [T-46], in the assay with Plutella xylostella, the “Rate of dead pests (%)” value amounted to 100%. For the same molecule, the “Rate of decrease (%)” value in the assay with Tetranychus urticae turned out to be 99%.
Regarding `Fc1cccc(Cl)c1-c1nc(C(F)(F)F)n(-c2ccc(COc3ncc(C(F)(F)F)cc3Cl)cc2)n1` [T-47], in the assay on Plutella xylostella, the “Rate of dead pests (%)” value is recorded as 100%. Besides, the “Rate of decrease (%)” value with Tetranychus urticae amounted to 100%.
Regarding `CCc1nc(-c2c(F)cccc2Cl)nn1-c1ccc(COc2ncc(C(F)(F)F)cc2Cl)cc1` [T-48], the “Rate of dead pests (%)” value in the assay with Plutella xylostella amounted to 100%. The “Rate of decrease (%)” value in the assay on Tetranychus urticae is given as 99%.
On the same counts, the results for `N#Cc1nc(-c2c(F)cccc2Cl)nn1-c1ccc(COc2ncc(C(F)(F)F)cc2Cl)cc1` [T-52] are 100% and 97%.
For `Fc1cccc(Cl)c1-c1nc(CCl)n(-c2ccc(COc3ncc(C(F)(F)F)cc3Cl)cc2)n1` [T-53], in the assay on Tetranychus urticae, the “Rate of decrease (%)” value is given as 99%.
On the same count and under the same terms, to `FCc1nc(-c2c(F)cccc2Cl)nn1-c1ccc(COc2ncc(C(F)(F)F)cc2Cl)cc1` [T-54] belongs 98%.
For `COCc1nc(-c2c(F)cccc2Cl)nn1-c1ccc(COc2ncc(C(F)(F)F)cc2Cl)cc1` [T-56], in the assay with Plutella xylostella, the “Rate of dead pests (%)” value was 100%. Besides, the “Rate of decrease (%)” value in the assay on Tetranychus urticae is on record as 98%.
As to `Cc1nc(-c2c(F)cccc2F)nn1-c1ccc(COc2ccc(C(F)(F)F)cn2)cc1` [T-66], in the assay with Plutella xylostella, the “Rate of dead pests (%)” value came out at 95%.
Consider `Cc1cccc(C)c1-c1nc(C)n(-c2ccc(COc3ncc(C(F)(F)F)cc3Cl)cc2)n1` [T-74], for which the “Rate of dead pests (%)” value with Plutella xylostella came to 100%. Besides, the “Rate of decrease (%)” value with Tetranychus urticae was found to be 97%.
Regarding `FC(F)(F)c1cnc(OCc2ccc(-n3cnc(-c4cc(Cl)nc(Cl)c4)n3)cc2)c(Cl)c1` [T-75], the “Rate of decrease (%)” value in the assay on Tetranychus urticae was 99%.
Still for that read-out and setting: to `Fc1cccc(F)c1-c1ncn(-c2ccc(COc3ncc(C(F)(F)F)cc3Cl)cc2)n1` [T-76] belongs 96%.
`Fc1cccc(F)c1-c1nc(Cl)n(-c2ccc(COc3ncc(C(F)(F)F)cc3Cl)cc2)n1` [T-78]: in the assay with Plutella xylostella, the “Rate of dead pests (%)” value is 100%. The “Rate of decrease (%)” value in the assay with Tetranychus urticae is 98%.
The matching figures for `CCc1nc(-c2c(F)cccc2F)nn1-c1ccc(COc2ncc(C(F)(F)F)cc2Cl)cc1` [T-88]: 95% and 98%.
As to `CC(C)c1nc(-c2c(F)cccc2Cl)nn1-c1ccc(COc2ncc(C(F)(F)F)cc2Cl)cc1` [T-92], the “Rate of decrease (%)” value in the assay on Tetranychus urticae is given as 98%.
`Fc1cccc(Cl)c1-c1nc(C2CC2)n(-c2ccc(COc3ncc(C(F)(F)F)cc3Cl)cc2)n1` [T-93]: the “Rate of decrease (%)” value in the assay with Tetranychus urticae turned out to be 97%.
`C=Cc1nc(-c2c(F)cccc2Cl)nn1-c1ccc(COc2ncc(C(F)(F)F)cc2Cl)cc1` [T-106]: in the assay on Plutella xylostella, the “Rate of dead pests (%)” value stood at 100%. In addition, the “Rate of decrease (%)” value in the assay with Tetranychus urticae was found to be 97%.
With `O=Cc1nc(-c2c(F)cccc2Cl)nn1-c1ccc(COc2ncc(C(F)(F)F)cc2Cl)cc1` [T-107], in the assay with Plutella xylostella, the “Rate of dead pests (%)” value is listed as 100%. Moreover, in the assay with Tetranychus urticae, the “Rate of decrease (%)” value stood at 100%.
As to `Fc1cccc(Cl)c1-c1nc(C(F)F)n(-c2ccc(COc3ncc(C(F)(F)F)cc3Cl)cc2)n1` [T-120], the “Rate of dead pests (%)” value in the assay with Plutella xylostella came to 100%. For the same molecule, in the assay with Tetranychus urticae, the “Rate of decrease (%)” value is reported as 99%.
`Cc1nc(-c2cccnc2Cl)nn1-c1ccc(COc2ncc(C(F)(F)F)cc2Cl)cc1` [T-130]: the “Rate of decrease (%)” value in the assay on Tetranychus urticae was determined as 98%.
Still for that read-out and setting: to `Cc1nc(-c2c(Cl)cc(Cl)cc2Cl)nn1-c1ccc(COc2ncc(C(F)(F)F)cc2Cl)cc1` [T-131] belongs 100%; to `C#Cc1nc(-c2c(F)cccc2Cl)nn1-c1ccc(COc2ncc(C(F)(F)F)cc2Cl)cc1` [T-132], 100%.
Turning to `Cc1nc(-c2c(F)c(F)cc(F)c2F)nn1-c1ccc(COc2ncc(C(F)(F)F)cc2Cl)cc1` [T-134], in the assay on Tetranychus urticae, the “Rate of decrease (%)” value came out at 100%.
The same measure, in the same setting: to `Cc1nc(-c2c(F)cc(F)cc2F)nn1-c1ccc(COc2ncc(C(F)(F)F)cc2Cl)cc1` [T-135] belongs 96%; to `Cc1nc(-c2ccccc2OC(F)(F)F)nn1-c1ccc(COc2ncc(C(F)(F)F)cc2Cl)cc1` [T-136], 99%; to `Cc1nc(-c2c(F)ccc(Cl)c2F)nn1-c1ccc(COc2ncc(C(F)(F)F)cc2Cl)cc1` [T-137], 99%.
Still for that read-out and setting: the figure for `Cc1nc(-c2c(F)ccc(F)c2Cl)nn1-c1ccc(COc2ncc(C(F)(F)F)cc2Cl)cc1` [T-138] is 99%.
In the case of `Cc1nc(-c2c(F)cccc2Cl)nn1-c1ccc(COc2ncc(C(F)(F)F)cn2)cc1` [T-139], the “Rate of decrease (%)” value in the assay with Tetranychus urticae is listed as 97%.
On the same count and under the same terms, the figure for `COc1cccc(OC)c1-c1nc(C)n(-c2ccc(COc3ncc(C(F)(F)F)cc3Cl)cc2)n1` [T-140] is 99%.
As for `COC(=O)c1nc(-c2c(F)cccc2Cl)nn1-c1ccc(COc2ncc(C(F)(F)F)cc2Cl)cc1` [T-143], in the assay with Tetranychus urticae, the “Rate of decrease (%)” value worked out at 98%.
Same read-out and setting: to `CC1=CN(Cc2ccc(COc3ncc(C(F)(F)F)cc3Cl)cc2)NC(c2c(F)cccc2Cl)=N1` [T-171, 3-(2-chloro-6-fluorophenyl)-1-[4-(3-chloro-5-trifluoromethyl-2-pyridyloxymethyl)phenylmethyl]-5-methyl-1H-1,2,4-triazine] belongs 99%; to `Cc1nc(-c2c(F)cccc2Cl)nn1Cc1ccc(COc2ncc(C(F)(F)F)cc2Cl)cc1` [T-172], 98%.
On the same count and under the same terms, to `Cc1nc(-c2c(F)cccc2Cl)nn1-c1ccc(Oc2ncc(C(F)(F)F)cc2Cl)cc1` [T-264] belongs 98%.

These data come from patent publication US20050009834A1, “Azole compounds, process for preparation of the same and use thereof” (priority 2001, published 2005).
